According to US20120015961A1, “ISOTHIOUREA DERIVATIVES OR ISOUREA DERIVATIVES HAVING BACE1 INHIBITORY ACTIVITY” (SHIONOGI & CO., LTD., priority 2009, published 2012):

What was measured:
[1] = tested on: Neuroblastoma SH-SY5Y cells (SH/APPwt) with human wild-type β-APP excessively expressed; assay: Measurement of β-amyloid (Aβ) production inhibitory effect in cell; assay type: cell-based; conditions: Homo sapiens, SH-SY5Y, 24 h, amount needed to inhibit Aβ production by 50%, 24 hours incubation, Amyloid β1-40 HTRF
Procedure: Neuroblastoma SH-SY5Y cells (SH/APPwt) with human wild-type β-APP excessively expressed therein were prepared at 8×10^5 cells/mL, and 150 μl portions thereof were inoculated into each well of a 96-well culture plate (Falcon). The cells were cultured for 2 hours at 37° C. in a 5% gaseous carbon dioxide incubator. Then, a solution which had been preliminarily prepared by adding and suspending the test compound (DMSO (dimethyl sulfoxide) solution) so as to be 2 μl/50 μl medium was added to the cell sap. Namely, the final DMSO concentration was 1%, and the amount of the cell culture was 200 μl. After the incubation was performed for 24 hours from the addition of the test compound, 100 μl of the culture supernatant was collected from each fraction. The amount of the Aβ in each fraction was measured.
The […] was measured as follows. 10 μl of a homogeneous time resolved fluorescence (HTRF) measurement reagent (Amyloid β1-40 peptide; IBA Molecular Holding, S.A.) and 10 μl of the culture supernatant were put into a 384-well half area microplate (black microplate, Costar) and mixed with each other, and then left standing overnight at 4° C. while the light was shielded. Then, the fluorescence intensity (excitation wavelength: 337 nm, measurement wavelength: 620 nm and 665 nm) was measured with a Wallac 1420 multilabel counter (Perkin Elmer life sciences). The Aβ amount was determined from the count rate at each measurement wavelength (10000×Count 665/Count 620), and the amount needed to inhibit Aβ production by 50% (IC50) was calculated from at least six different dosages.

CYP1A2 = target: T1, CYP1A2 (Homo sapiens, UniProt P05177); assay: CYP inhibition test (CYP1A2); assay type: in vitro ADME; conditions: pooled human hepatic microsome, 7-ethoxyresorufin O-deethylation
T1 construct: Enzyme, pooled human hepatic microsome 0.2 mg protein/mL; from tissue; host or cells: pooled human hepatic microsomes
T1 sequence (P05177 1-516): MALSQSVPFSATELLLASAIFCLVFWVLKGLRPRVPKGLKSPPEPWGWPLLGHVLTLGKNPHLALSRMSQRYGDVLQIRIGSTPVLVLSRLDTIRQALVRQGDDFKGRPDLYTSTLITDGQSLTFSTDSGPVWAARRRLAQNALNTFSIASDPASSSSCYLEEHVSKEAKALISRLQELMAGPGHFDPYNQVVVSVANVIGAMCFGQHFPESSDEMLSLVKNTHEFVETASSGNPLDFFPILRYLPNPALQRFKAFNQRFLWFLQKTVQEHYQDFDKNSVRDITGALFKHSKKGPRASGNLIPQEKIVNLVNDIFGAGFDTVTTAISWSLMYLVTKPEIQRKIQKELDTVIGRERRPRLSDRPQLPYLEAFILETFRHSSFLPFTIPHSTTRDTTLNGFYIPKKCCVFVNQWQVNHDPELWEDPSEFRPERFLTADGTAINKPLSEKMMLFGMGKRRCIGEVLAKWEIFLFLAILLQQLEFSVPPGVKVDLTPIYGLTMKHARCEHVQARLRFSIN
Procedure: (§1) Using commercially available pooled human hepatic microsome, and employing, as markers, 7-ethoxyresorufin O-deethylation (CYP1A2), tolbutamide methyl-hydroxylation (CYP2C9), mephenyloin 4′-hydroxylation (CYP2C19), dextromethorphan O-demethylation (CYP2D6), and terfenedine hydroxylation as typical substrate metabolism reactions of human main five CYP enzyme forms (CYP1A2, 2C9, 2C19, 2D6, 3A4), an inhibitory degree of each metabolite production amount by a test compound was assessed.
(§2) The reaction conditions were as follows: […]
(§3) Each five kinds of substrates, human hepatic microsome, or a test drug in 50 mM Hepes buffer as a reaction solution was added to a 96-well plate at the composition as described above, NADPH, a cofactor, was added to initiate metabolism reactions as markers and, after the incubation at 37° C. for 15 minutes, a methanol/acetonitrile=1/1 (v/v) solution was added to stop the reaction. After the centrifugation at 3000 rpm for 15 minutes, resorufin (CYP1A2 metabolite) in the supernatant was quantified by a fluorescent multilabel counter and tributamide hydroxide (CYP2CP metabolite), mephenyloin 4′ hydroxide (CYP2C19 metabolite), […], and terfenadine alcohol (CYP3A4 metabolite) were quantified by LC/MS/MS. […]

CYP2C9 = target: T2, CYP2C9 (Homo sapiens, UniProt P11712); assay: CYP inhibition test (CYP2C9); assay type: in vitro ADME; conditions: pooled human hepatic microsome, tolbutamide methyl-hydroxylation
T2 construct: Enzyme, pooled human hepatic microsome 0.2 mg protein/mL; from tissue; host or cells: pooled human hepatic microsomes
Procedure: as §1, §2, §3

CYP2C19 = target: T3, CYP2C19 (Homo sapiens, UniProt P33261); assay: CYP inhibition test (CYP2C19); assay type: in vitro ADME; conditions: pooled human hepatic microsome, mephenyloin 4′-hydroxylation
T3 construct: Enzyme, pooled human hepatic microsome 0.2 mg protein/mL; from tissue; host or cells: pooled human hepatic microsomes
Procedure: as §1, §2, §3

CYP2D6 = target: T4, CYP2D6 (Homo sapiens, UniProt P10635); assay: CYP inhibition test (CYP2D6); assay type: in vitro ADME; conditions: pooled human hepatic microsome, dextromethorphan O-demethylation
T4 construct: Enzyme, pooled human hepatic microsome 0.2 mg protein/mL; from tissue; host or cells: pooled human hepatic microsomes
Procedure: as §1, §2, §3

CYP3A4 = CYP3A4 (Homo sapiens, UniProt P08684); assay: CYP inhibition test (CYP3A4); assay type: in vitro ADME; parameters: Enzyme, pooled human hepatic microsome 0.2 mg protein/mL; from tissue; host or cells: pooled human hepatic microsomes; conditions: pooled human hepatic microsome, terfenedine hydroxylation
Procedure: as §1, §2, §3

Recombinant human BACE1 = target: T5, Recombinant human BACE1 (Homo sapiens, UniProt P56817); assay: Assay of BACE1 inhibiting activity; assay type: biochemical; conditions: 50% inhibitory concentration against enzymatic activity, pH 5.0, 30° C., 3 hours
T5 construct: purchased R&D Systems
Procedure: 48.5 μL of substrate peptide solution (Biotin-XSEVNLDAEFRHDSGC-Eu: Xεε-amino-n-capronic acid, Eu=Europium cryptate) was added to each well of 96-hole half-area plate (a black plate: Costar Corporation), and after addition of 0.5 μl of the test compound (dissolved in […]) and 1 μl of Recombinant human BACE1 (R&D Systems), the reaction mixture was incubated at 30° C. for 3 hours. The substrate peptide was synthesized by reacting Cryptate TBPCOOH mono SMP (CIS bio international) with Biotin-XSEVNLDAEFRHDSGC (Peptide Institute, Inc.). The final concentrations of the substrate peptide and Recombinant human BACE1 were adjusted to 18 nM and 7.4 nM respectively, and the reaction was performed in sodium acetate buffer (50 mM sodium acetate, pH 5.0, 0.008% Triton X-100). After the completion of reaction, 50 μl of 8.0 μg/ml Streptavidin-XL665 (CIS bio international) dissolved in phosphate buffer (150 mM K2HPO4—KH2PO4, pH 7.0, 0.008% Triton X-100, 0.8 M KF) was added to each well and left stand at 30° C. for an hour. Then, fluorescence intensity was measured (excitation wavelength: 320 nm, measuring wavelength: 620 nm and 665 nm) using Wallac 1420 multilabel counter (Perkin Elmer life sciences). Enzymatic activity was determined from counting ratio of each wavelength (10,000×Count 665/Count 620) and 50% inhibitory concentration against the enzymatic activity was calculated.

BA test = assay type: in vivo; conditions: rat, plasma; SD rats, from AUCs of oral and intravenous administration
Procedure: Materials and methods for studies on oral absorption
(2) Breeding conditions: rats were allowed to freely take solid feed and sterilized tap water
(3) Dose and grouping: orally or intravenously administered at a predetermined dose; grouping was as follows (Dose depends on the compound)
Oral administration: 1 to 30 mg/kg (n=2 to 3)
Intravenous administration: 0.5 to 10 mg/kg (n=2 to 3)
(4) Preparation of dosing solution: for oral administration, in a solution or a suspension state; for intravenous administration, in a solubilized state
(5) Administration method: in oral administration, forcedly administer into ventriculus with oral probe; in intravenous administration, administer from caudal vein with a needle-equipped syringe
(6) Evaluation items: blood was collected over time, and the plasma concentration of drug was measured by LC/MS/MS
(7) Statistical analysis: regarding the transition of the plasma concentration, the area under the plasma concentration-time curve (AUC) was calculated by non-linear least squares program WinNonlin (Registered trademark), and the bioavailability (BA) was calculated from the AUCs of the oral administration group and intravenous administration group

Metabolic stability test = assay type: in vitro ADME; conditions: human liver microsomes 0.5 mg protein/mL, 1 mmol/L NADPH, 30 minutes at 37° C.
Procedure: The target compound was reacted with commercially available pooled human liver microsomes for a predetermined time period. The residual rate was calculated by comparing the reacted sample and unreacted sample, and thus the degree of metabolism in liver was evaluated.
In 0.2 mL of a buffer (50 mmol/L tris-HCl pH 7.4, 150 mmol/L potassium chloride, 10 mmol/L magnesium chloride) containing human liver microsomes 0.5 mg protein/mL, reaction was carried out in the presence of 1 mmol/L NADPH for 0 minute or 30 minutes at 37° C. (oxidative reaction). After the reaction, 50 μL of the reaction solution was added to and mixed with 100 μL of a solution of methanol/acetonitrile=1/1 (v/v), and the mixture was centrifuged for 15 minutes at 3000 rpm. The test compound in the centrifuged supernatant was quantified by LC/MS/MS, and the residual amount of the test compound after the reaction was calculated based on the compound amount at O-minute reaction set as 100%.

Solubility test = assay type: physicochemical; conditions: JP-I medium with 2% DMSO, pH 1.2, simulated gastric fluid, kinetic from dmso stock, turbidity after 4 hours
Procedure: A 2-fold dilution series (12 points) of a 10 mM solution of a test compound in DMSO was added to a medium (JP-I, JP-II) (2%), and solubility was assessed by 3 stages (High; >40 μM, Medium; 3-40 μM, Low; <3 μM) from a turbidity after 4 hours (crystallization information).

T5 sequence (P56817 46-501): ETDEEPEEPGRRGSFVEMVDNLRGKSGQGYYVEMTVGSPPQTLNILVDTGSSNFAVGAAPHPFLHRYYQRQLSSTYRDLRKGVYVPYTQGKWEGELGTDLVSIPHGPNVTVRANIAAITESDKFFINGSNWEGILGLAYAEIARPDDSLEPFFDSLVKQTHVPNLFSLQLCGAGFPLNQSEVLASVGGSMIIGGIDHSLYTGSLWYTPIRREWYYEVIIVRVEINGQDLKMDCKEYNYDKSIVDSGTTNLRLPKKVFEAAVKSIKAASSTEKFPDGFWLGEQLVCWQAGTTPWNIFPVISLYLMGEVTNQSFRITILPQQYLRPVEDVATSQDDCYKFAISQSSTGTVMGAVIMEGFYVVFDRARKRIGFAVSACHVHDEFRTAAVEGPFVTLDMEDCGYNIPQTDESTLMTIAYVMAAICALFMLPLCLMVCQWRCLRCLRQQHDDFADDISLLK
T2 sequence (P11712 whole entry): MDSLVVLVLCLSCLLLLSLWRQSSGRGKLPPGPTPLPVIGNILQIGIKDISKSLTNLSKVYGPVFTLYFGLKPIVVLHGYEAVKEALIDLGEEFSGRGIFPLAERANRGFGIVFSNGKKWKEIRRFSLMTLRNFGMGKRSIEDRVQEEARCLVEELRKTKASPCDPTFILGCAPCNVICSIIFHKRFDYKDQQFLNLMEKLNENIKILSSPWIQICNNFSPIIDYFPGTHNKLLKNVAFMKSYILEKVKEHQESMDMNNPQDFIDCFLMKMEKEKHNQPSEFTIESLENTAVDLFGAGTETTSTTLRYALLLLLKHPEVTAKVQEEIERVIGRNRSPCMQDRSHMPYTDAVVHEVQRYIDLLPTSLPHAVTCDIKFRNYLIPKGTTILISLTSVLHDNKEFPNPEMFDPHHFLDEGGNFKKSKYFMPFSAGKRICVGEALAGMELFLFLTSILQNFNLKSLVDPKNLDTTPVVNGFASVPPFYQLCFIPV
T3 sequence (P33261 whole entry): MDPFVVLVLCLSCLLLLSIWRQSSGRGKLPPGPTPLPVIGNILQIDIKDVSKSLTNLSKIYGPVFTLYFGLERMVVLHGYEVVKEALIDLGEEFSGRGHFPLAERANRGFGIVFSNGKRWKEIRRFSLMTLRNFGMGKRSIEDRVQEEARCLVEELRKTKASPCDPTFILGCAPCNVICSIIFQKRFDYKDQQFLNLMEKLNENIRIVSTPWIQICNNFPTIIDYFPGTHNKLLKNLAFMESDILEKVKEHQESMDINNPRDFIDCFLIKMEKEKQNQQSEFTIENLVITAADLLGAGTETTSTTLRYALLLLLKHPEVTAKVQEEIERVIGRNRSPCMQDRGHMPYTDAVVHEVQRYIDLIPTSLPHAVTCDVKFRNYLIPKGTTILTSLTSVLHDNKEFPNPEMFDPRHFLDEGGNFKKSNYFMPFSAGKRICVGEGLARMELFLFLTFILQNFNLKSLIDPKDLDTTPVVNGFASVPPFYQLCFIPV
CYP3A4, sequence (P08684 whole entry): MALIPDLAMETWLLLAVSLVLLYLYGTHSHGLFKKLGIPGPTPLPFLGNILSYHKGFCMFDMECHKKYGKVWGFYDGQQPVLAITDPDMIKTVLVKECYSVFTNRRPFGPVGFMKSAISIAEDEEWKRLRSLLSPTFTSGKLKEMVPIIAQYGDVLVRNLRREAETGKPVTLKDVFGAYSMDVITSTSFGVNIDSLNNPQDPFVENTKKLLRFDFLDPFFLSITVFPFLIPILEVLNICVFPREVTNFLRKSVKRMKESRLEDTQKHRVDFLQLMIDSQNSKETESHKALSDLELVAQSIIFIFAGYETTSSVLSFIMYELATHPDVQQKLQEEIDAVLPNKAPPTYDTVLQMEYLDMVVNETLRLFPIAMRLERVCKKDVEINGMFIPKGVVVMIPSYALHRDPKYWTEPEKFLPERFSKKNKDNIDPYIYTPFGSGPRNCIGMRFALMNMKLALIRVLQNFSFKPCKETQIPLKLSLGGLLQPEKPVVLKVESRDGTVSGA
T4 sequence (P10635 whole entry): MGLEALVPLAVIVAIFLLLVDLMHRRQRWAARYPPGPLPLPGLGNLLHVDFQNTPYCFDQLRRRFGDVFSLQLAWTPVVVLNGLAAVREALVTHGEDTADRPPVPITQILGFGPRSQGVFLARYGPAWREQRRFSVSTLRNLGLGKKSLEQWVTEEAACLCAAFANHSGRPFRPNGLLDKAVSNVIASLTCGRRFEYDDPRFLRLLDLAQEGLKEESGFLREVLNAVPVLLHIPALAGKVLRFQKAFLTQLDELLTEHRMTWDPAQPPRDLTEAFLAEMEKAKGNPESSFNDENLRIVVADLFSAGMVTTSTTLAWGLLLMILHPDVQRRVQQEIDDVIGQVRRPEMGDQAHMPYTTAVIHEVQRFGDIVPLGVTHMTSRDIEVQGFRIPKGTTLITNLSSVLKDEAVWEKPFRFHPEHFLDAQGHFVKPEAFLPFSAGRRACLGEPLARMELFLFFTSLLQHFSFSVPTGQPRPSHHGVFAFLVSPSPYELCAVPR

SMILES | IC50 [1] [µM] | IC50 (CYP1A2) [µM] | IC50 (CYP2C9) [µM] | IC50 (CYP2C19) [µM] | IC50 (CYP2D6) [µM] | IC50 (CYP3A4) [µM] | IC50 (Recombinant human BACE1) [µM] | bioavailability (BA test) [%] | residual amount of the test compound after the reaction (Metabolic stability test) [%] | solubility at 4 h (Solubility test) [µM]
CO/C(N)=N\C1(c2cccc(NC(=O)c3cnc(C)cn3)c2)CC1 [Compound 41] | ≤ 1 | > 20 | > 20 | > 20 | > 20 | > 20 | – | – | – | –
CO/C(N)=N/C(c1ccccc1)c1cccc(NC(=O)c2ccc(C#N)cn2)c1 (centres unmarked) [Compound 48] | ≤ 1 | – | – | – | – | – | ≤ 1 | 87.2 | – | –
CO/C(N)=N/C(c1ccc(F)cc1)c1cccc(NC(=O)c2ccc(C#N)cn2)c1 (centres unmarked) [Compound 50] | ≤ 1 | – | – | – | – | – | 0.188 | – | 100 | –

More lines, now with the values ahead:

IC50 [1] [µM] | IC50 (CYP1A2) [µM] | IC50 (CYP2C9) [µM] | IC50 (CYP2C19) [µM] | IC50 (CYP2D6) [µM] | IC50 (CYP3A4) [µM] | IC50 (Recombinant human BACE1) [µM] | bioavailability (BA test) [%] | residual amount of the test compound after the reaction (Metabolic stability test) [%] | solubility at 4 h (Solubility test) [µM] | SMILES
≤ 1 | > 20 | > 20 | > 20 | > 20 | > 20 | – | – | – | – | N#Cc1ccc(C(=O)Nc2cccc(C/N=C(\N)OCCCO)c2)nc1 [Compound 36]
– | – | – | – | – | – | – | – | 98.9 | > 40 | CO/C(N)=N\c1cccc2ncc(NC(=O)c3ccc(C#N)cn3)cc12 [Compound 76]
≤ 1 | – | – | – | – | – | ≤ 1 | 75 | – | – | CO/C(N)=N\c1c(C)ccc2ccc(NC(=O)c3ccc(C#N)cn3)cc12 [Compound 77]
